# Read-outs that look alike come from different tables or passages of the source. Positions of bridges follow the written chain, without caps; N, C: chain ends. Non-standard residues stand in square brackets, D forms with d. Residues, ends and D or L forms follow the SMILES beside them. Lys(Me2) = CN(C)CCCC[C@H](N)C(=O)O
# Assays:
# Test in all cases: cell-based
# [1] = molecular target: hNav1.3 (Homo sapiens, UniProt Q9NY46); conditions: IonWorks Quattro, read-out: IWQ Use Nav1.3
# [2] = molecular target: T1, hNav1.7 (Homo sapiens, UniProt Q15858); conditions: Nav1.7 Use IC50
# [3] = molecular target: T2, hNav1.5 (Homo sapiens, UniProt Q14524)
# T2 sequence (Q14524 whole entry, looked up): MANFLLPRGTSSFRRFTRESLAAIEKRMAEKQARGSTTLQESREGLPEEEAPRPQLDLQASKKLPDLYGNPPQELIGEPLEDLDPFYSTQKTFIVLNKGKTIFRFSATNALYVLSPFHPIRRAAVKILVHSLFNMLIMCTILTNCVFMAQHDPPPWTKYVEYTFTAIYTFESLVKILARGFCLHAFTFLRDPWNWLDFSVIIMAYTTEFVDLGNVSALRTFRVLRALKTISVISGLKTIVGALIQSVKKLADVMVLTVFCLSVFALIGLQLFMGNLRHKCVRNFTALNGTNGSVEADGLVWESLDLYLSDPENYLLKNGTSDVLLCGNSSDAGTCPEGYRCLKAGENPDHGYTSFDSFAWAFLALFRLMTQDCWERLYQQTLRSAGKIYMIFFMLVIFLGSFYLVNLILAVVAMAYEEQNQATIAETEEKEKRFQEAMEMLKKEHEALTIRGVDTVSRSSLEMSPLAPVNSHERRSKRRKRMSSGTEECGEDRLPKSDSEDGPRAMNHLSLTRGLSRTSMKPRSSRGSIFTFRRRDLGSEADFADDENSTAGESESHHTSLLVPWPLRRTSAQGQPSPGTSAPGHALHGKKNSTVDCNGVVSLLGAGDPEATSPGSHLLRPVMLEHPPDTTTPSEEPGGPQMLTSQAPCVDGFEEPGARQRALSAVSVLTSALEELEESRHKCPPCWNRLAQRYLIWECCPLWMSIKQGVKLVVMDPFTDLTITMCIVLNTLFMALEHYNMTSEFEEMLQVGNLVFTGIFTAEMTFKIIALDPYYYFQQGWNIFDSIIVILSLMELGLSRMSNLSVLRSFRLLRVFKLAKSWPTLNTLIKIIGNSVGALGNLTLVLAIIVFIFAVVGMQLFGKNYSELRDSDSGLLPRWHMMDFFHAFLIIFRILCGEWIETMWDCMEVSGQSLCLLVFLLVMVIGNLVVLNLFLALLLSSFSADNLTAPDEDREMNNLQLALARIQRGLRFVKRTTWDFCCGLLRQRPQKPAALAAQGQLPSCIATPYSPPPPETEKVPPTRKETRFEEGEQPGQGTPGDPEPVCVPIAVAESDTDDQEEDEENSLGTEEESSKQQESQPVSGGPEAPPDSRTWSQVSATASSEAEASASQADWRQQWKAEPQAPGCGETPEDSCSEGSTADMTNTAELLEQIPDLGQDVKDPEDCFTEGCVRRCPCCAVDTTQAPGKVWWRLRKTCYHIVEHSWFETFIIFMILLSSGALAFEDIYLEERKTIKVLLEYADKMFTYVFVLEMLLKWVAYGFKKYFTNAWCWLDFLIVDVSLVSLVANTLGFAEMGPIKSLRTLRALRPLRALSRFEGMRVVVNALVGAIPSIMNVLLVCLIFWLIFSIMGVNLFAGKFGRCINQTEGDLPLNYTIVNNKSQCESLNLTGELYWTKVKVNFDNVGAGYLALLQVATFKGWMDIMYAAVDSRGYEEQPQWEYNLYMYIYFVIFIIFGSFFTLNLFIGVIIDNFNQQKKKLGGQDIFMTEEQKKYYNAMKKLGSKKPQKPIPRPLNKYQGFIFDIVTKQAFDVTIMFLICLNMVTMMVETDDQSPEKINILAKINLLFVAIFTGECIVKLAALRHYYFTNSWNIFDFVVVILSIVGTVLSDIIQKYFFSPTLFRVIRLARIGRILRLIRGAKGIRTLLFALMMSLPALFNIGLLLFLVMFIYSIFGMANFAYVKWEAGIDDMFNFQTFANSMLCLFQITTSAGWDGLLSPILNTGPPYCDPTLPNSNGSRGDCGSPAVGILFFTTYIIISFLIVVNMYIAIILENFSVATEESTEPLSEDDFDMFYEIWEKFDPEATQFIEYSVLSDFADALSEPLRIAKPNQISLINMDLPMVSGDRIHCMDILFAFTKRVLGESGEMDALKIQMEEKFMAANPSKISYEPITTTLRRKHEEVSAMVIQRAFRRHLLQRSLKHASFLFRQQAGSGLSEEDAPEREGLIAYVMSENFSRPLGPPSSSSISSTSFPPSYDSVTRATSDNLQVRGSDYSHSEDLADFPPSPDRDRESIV
# [4] = molecular target: T1, hNav1.7; format: cell-based
# [5] = molecular target: T2, hNav1.5; remark: listed apart in the source
# [6] = clamped to −110 mV, depolarized to −10 mV, 5 min after compound, n=2
# [7] = IonWorks Quattro, clamped to −110 mV, depolarized to −10 mV, 5 min after compound, n=2, read-out: IWQ Use Nav1.5
# [8] = IonWorks Quattro, clamped to −110 mV, depolarized to −10 mV, 5 min after compound, n=2, read-out: IWQ Use Nav1.7
# Chain of hNav1.3 (Q9NY46 whole entry, looked up): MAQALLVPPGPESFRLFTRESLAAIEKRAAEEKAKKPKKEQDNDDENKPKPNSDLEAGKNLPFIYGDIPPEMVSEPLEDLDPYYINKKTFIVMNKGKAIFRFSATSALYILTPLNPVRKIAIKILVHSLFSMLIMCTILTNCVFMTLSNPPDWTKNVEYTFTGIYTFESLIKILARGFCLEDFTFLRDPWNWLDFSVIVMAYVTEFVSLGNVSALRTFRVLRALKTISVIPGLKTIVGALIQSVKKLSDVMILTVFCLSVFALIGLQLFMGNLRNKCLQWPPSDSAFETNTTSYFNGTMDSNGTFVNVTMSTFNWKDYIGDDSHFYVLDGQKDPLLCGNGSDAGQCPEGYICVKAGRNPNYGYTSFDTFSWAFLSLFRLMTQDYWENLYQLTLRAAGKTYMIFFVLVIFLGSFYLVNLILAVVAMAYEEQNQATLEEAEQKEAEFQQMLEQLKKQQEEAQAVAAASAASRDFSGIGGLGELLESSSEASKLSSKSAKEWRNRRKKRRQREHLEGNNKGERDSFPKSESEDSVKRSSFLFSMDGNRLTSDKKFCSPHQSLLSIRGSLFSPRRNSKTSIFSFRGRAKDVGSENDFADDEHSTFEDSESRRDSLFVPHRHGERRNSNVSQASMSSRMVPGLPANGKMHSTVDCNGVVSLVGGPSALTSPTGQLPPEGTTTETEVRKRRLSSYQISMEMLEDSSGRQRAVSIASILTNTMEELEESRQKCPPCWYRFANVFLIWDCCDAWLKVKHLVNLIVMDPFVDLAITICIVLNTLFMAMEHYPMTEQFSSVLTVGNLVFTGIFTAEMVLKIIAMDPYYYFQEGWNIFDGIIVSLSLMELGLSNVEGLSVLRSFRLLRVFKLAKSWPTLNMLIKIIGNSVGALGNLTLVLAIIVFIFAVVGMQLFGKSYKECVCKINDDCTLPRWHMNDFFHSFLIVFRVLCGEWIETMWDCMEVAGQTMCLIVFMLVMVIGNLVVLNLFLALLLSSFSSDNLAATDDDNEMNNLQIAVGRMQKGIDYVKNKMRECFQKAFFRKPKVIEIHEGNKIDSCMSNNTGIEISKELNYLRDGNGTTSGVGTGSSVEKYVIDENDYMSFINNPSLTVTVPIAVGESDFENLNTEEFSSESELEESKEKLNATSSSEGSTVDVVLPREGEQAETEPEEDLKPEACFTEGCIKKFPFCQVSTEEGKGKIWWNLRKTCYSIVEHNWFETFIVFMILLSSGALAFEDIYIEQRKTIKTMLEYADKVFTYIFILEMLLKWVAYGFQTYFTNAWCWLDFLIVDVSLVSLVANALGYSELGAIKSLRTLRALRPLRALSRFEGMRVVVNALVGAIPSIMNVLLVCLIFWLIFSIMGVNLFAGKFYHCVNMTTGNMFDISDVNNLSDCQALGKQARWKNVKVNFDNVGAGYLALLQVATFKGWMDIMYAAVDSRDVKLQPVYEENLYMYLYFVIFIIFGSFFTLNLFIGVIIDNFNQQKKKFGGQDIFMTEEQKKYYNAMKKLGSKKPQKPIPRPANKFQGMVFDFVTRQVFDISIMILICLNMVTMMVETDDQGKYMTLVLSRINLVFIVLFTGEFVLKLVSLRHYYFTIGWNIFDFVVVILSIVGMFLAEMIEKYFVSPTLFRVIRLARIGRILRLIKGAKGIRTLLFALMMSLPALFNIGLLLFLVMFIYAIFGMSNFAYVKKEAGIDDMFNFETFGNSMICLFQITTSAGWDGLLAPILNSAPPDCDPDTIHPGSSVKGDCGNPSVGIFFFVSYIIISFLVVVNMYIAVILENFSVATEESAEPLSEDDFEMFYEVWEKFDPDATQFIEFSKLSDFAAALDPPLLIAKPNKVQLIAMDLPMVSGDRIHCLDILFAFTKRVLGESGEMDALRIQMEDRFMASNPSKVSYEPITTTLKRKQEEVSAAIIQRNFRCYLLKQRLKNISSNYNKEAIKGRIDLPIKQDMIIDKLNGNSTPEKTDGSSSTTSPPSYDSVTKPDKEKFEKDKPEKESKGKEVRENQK
SMILES,"IC50 [1, 6] [nM]",IC50 [2] [nM],"IC50 [3, 7] [µM]",also measured
"CC[C@H](C)[C@@H]1NC(=O)CNC(=O)[C@H](CC(C)C)NC(=O)[C@@H](NC(=O)[C@@H](N)CC(=O)O)CSSC[C@@H]2NC(=O)[C@@H]3CSSC[C@@H](C(=O)N[C@@H](CCCCN)C(=O)N[C@@H](Cc4ccc(O)cc4)C(=O)N[C@H](C(=O)N[C@@H](Cc4ccccc4)C(N)=O)C(C)C)NC(=O)[C@H](Cc4c[nH]c5ccccc45)NC(=O)[C@H](CCCCN)NC(=O)[C@H](Cc4cnc[nH]4)NC(=O)[C@H]([C@@H](C)O)NC(=O)[C@H](CCCNC(=N)N)NC(=O)[C@H](CO)NC(=O)[C@H](CSSC[C@H](NC(=O)[C@H](CCCCN)NC(=O)[C@H](CCCNC(=N)N)NC(=O)[C@H](CCSC)NC1=O)C(=O)N[C@@H]([C@@H](C)CC)C(=O)N1CCC[C@H]1C(=O)N[C@@H](CC(=O)O)C(=O)N[C@@H](CC(N)=O)C(=O)N[C@@H](CC(=O)O)C(=O)N[C@@H](CCCCN)C(=O)N3)NC(=O)[C@H](C(C)C)NC(=O)[C@H](CC(C)C)NC(=O)[C@H](CC(N)=O)NC(=O)[C@@H]1CCCN1C(=O)[C@H](CCCNC(=N)N)NC2=O [SEQ ID NO: 88] (H-DCLGIMRKCIPDNDKCCRPNLVCSRTHKWCKYVF-NH2; disulfide 2-17, 9-23, 16-30)",620,2,6.65,"IC50 [4, 8]: 360 nM"
"CC[C@H](C)[C@@H]1NC(=O)[C@@H]2CSSC[C@@H]3NC(=O)[C@H](C(C)C)NC(=O)[C@H](CC(C)C)NC(=O)[C@H](CC(N)=O)NC(=O)[C@@H]4CCCN4C(=O)[C@H](CCCNC(=N)N)NC(=O)[C@H](CSSC[C@H](NC(=O)[C@@H](N)CC(=O)O)C(=O)N[C@@H](CC(C)C)C(=O)NCC(=O)N[C@@H](Cc4ccccc4)C(=O)N[C@@H](CCSC)C(=O)N[C@@H](CCCNC(=N)N)C(=O)N[C@@H](CCCCN)C(=O)N2)NC(=O)[C@H](CSSC[C@@H](C(=O)N[C@@H](CCCCN)C(=O)N[C@@H](Cc2ccc(O)cc2)C(=O)N[C@H](C(=O)N[C@@H](Cc2ccccc2)C(N)=O)C(C)C)NC(=O)[C@H](Cc2c[nH]c4ccccc24)NC(=O)[C@H](CCC(=O)O)NC(=O)[C@H](Cc2cnc[nH]2)NC(=O)[C@H]([C@@H](C)O)NC(=O)[C@H](CCCNC(=N)N)NC(=O)[C@H](CO)NC3=O)NC(=O)[C@H](CCCCN)NC(=O)[C@H](CC(=O)O)NC(=O)[C@H](CC(N)=O)NC(=O)[C@H](CC(=O)O)NC(=O)[C@@H]2CCCN2C1=O [SEQ ID NO: 153, [Glu28]GpTx-1(1-34)] (H-DCLGFMRKCIPDNDKCCRPNLVCSRTHEWCKYVF-NH2; disulfide 2-17, 9-23, 16-30)",–,50.1,–,"IC50 ([1]; Table 23, use, […]): 800 nM; IC50 ([3]; IWQ Use Nav1.5 (μM)): 14.1 µM"
"CC[C@H](C)[C@@H]1NC(=O)[C@@H]2CSSC[C@@H]3NC(=O)[C@H](C(C)C)NC(=O)[C@H](CC(C)C)NC(=O)[C@H](CC(N)=O)NC(=O)[C@@H]4CCCN4C(=O)[C@H](CCCNC(=N)N)NC(=O)[C@H](CSSC[C@H](NC(=O)[C@@H](N)CC(=O)O)C(=O)N[C@@H](CC(C)C)C(=O)NCC(=O)N[C@@H](CC(C)C)C(=O)N[C@@H](CCSC)C(=O)N[C@@H](CCCNC(=N)N)C(=O)N[C@@H](CCCCN)C(=O)N2)NC(=O)[C@H](CSSC[C@@H](C(=O)N[C@@H](CCCCN)C(=O)N[C@@H](Cc2ccc(O)cc2)C(=O)N[C@H](C(=O)N[C@@H](Cc2ccccc2)C(N)=O)C(C)C)NC(=O)[C@H](Cc2c[nH]c4ccccc24)NC(=O)[C@H](CCCCN)NC(=O)[C@H](Cc2cnc[nH]2)NC(=O)[C@H]([C@@H](C)O)NC(=O)[C@H](CCCNC(=N)N)NC(=O)[C@H](CO)NC3=O)NC(=O)[C@H](CCCCN)NC(=O)[C@H](CC(=O)O)NC(=O)[C@H](CC(N)=O)NC(=O)[C@H](CC(=O)O)NC(=O)[C@@H]2CCCN2C1=O [SEQ ID NO: 267] (H-DCLGLMRKCIPDNDKCCRPNLVCSRTHKWCKYVF-NH2; disulfide 2-17, 9-23, 16-30)",300,7,7.4,IC50 [4]: 170 nM
"CC[C@H](C)[C@@H]1NC(=O)[C@@H]2CSSC[C@@H]3NC(=O)[C@H](C(C)C)NC(=O)[C@H](CC(C)C)NC(=O)[C@H](CC(N)=O)NC(=O)[C@@H]4CCCN4C(=O)[C@H](CCCNC(=N)N)NC(=O)[C@H](CSSC[C@H](NC(=O)[C@@H](N)CC(=O)O)C(=O)N[C@@H](CC(C)C)C(=O)NCC(=O)N[C@@H](C(C)C)C(=O)N[C@@H](CCSC)C(=O)N[C@@H](CCCNC(=N)N)C(=O)N[C@@H](CCCCN)C(=O)N2)NC(=O)[C@H](CSSC[C@@H](C(=O)N[C@@H](CCCCN)C(=O)N[C@@H](Cc2ccc(O)cc2)C(=O)N[C@H](C(=O)N[C@@H](Cc2ccccc2)C(N)=O)C(C)C)NC(=O)[C@H](Cc2c[nH]c4ccccc24)NC(=O)[C@H](CCCCN)NC(=O)[C@H](Cc2cnc[nH]2)NC(=O)[C@H]([C@@H](C)O)NC(=O)[C@H](CCCNC(=N)N)NC(=O)[C@H](CO)NC3=O)NC(=O)[C@H](CCCCN)NC(=O)[C@H](CC(=O)O)NC(=O)[C@H](CC(N)=O)NC(=O)[C@H](CC(=O)O)NC(=O)[C@@H]2CCCN2C1=O [SEQ ID NO: 272] (H-DCLGVMRKCIPDNDKCCRPNLVCSRTHKWCKYVF-NH2; disulfide 2-17, 9-23, 16-30)",1030,18,13.2,"IC50 [4, 8]: 710 nM"
"CC[C@H](C)[C@@H]1NC(=O)[C@@H]2CSSC[C@@H]3NC(=O)[C@H](C(C)C)NC(=O)[C@H](CC(C)C)NC(=O)[C@H](CC(N)=O)NC(=O)[C@@H]4CCCN4C(=O)[C@H](CCCCN(C)C)NC(=O)[C@H](CSSC[C@H](NC(=O)[C@@H](N)CC(=O)O)C(=O)N[C@@H](CC(C)C)C(=O)NCC(=O)N[C@@H](Cc4ccccc4)C(=O)N[C@@H](CCSC)C(=O)N[C@@H](CCCNC(=N)N)C(=O)N[C@@H](CCCCN)C(=O)N2)NC(=O)[C@H](CSSC[C@@H](C(=O)N[C@@H](CCCCN)C(=O)N[C@@H](Cc2ccc(O)cc2)C(=O)N[C@H](C(=O)N[C@@H](Cc2ccccc2)C(N)=O)C(C)C)NC(=O)[C@H](Cc2c[nH]c4ccccc24)NC(=O)[C@H](CCCCN)NC(=O)[C@H](Cc2cnc[nH]2)NC(=O)[C@H]([C@@H](C)O)NC(=O)[C@H](CCCNC(=N)N)NC(=O)[C@H](CO)NC3=O)NC(=O)[C@H](CCCCN)NC(=O)[C@H](CC(=O)O)NC(=O)[C@H](CC(N)=O)NC(=O)[C@H](CC(=O)O)NC(=O)[C@@H]2CCCN2C1=O [[K(Me2)18]GpTx-1(1-34)] (H-DCLGFMRKCIPDNDKCC[Lys(Me2)]PNLVCSRTHKWCKYVF-NH2; disulfide 2-17, 9-23, 16-30)",–,–,–,IC50 [5]: 10000 nM
CC[C@H](C)[C@@H]1NC(=O)[C@@H]2CSSC[C@@H]3NC(=O)[C@H](C(C)C)NC(=O)[C@H](CC(C)C)NC(=O)[C@H](CC(N)=O)NC(=O)[C@@H]4CCCN4C(=O)[C@H](CCCNC(=N)N)NC(=O)[C@H](CSSC[C@H](NC(=O)[C@@H](N)CC(=O)O)C(=O)N[C@@H](CC(C)C)C(=O)NCC(=O)N(C)[C@@H](CC(C)C)C(=O)N[C@@H](CCSC)C(=O)N[C@@H](CCCNC(=N)N)C(=O)N[C@@H](CCCCN)C(=O)N2)NC(=O)[C@H](CSSC[C@@H](C(=O)N[C@@H](CCCCN)C(=O)N[C@@H](Cc2ccc(O)cc2)C(=O)N[C@H](C(=O)N[C@@H](Cc2ccccc2)C(N)=O)C(C)C)NC(=O)[C@H](Cc2c[nH]c4ccccc24)NC(=O)[C@H](CCCCN)NC(=O)[C@H](Cc2cnc[nH]2)NC(=O)[C@H]([C@@H](C)O)NC(=O)[C@H](CCCNC(=N)N)NC(=O)[C@H](CO)NC3=O)NC(=O)[C@H](CCCCN)NC(=O)[C@H](CC(=O)O)NC(=O)[C@H](CC(N)=O)NC(=O)[C@H](CC(=O)O)NC(=O)[C@@H]2CCCN2C1=O [[NMeLeu5]GpTx-1(1-34)],–,26,–,–
CCC[C@@H]1NC(=O)CNC(=O)[C@H](CC(C)C)NC(=O)[C@@H](NC(=O)[C@@H](N)CC(=O)O)CSSC[C@@H]2NC(=O)[C@@H]3CSSC[C@@H](C(=O)N[C@@H](CCCCN)C(=O)N[C@@H](Cc4ccc(O)cc4)C(=O)N[C@H](C(=O)N[C@@H](Cc4ccccc4)C(N)=O)C(C)C)NC(=O)[C@H](Cc4c[nH]c5ccccc45)NC(=O)[C@H](CCCCN)NC(=O)[C@H](Cc4cnc[nH]4)NC(=O)[C@H]([C@@H](C)O)NC(=O)[C@H](CCCNC(=N)N)NC(=O)[C@H](CO)NC(=O)[C@H](CSSC[C@H](NC(=O)[C@H](CCCCN)NC(=O)[C@H](CCCNC(=N)N)NC(=O)[C@H](CCSC)NC1=O)C(=O)N[C@@H]([C@@H](C)CC)C(=O)N1CCC[C@H]1C(=O)N[C@@H](CC(=O)O)C(=O)N[C@@H](CC(N)=O)C(=O)N[C@@H](CC(=O)O)C(=O)N[C@@H](CCCCN)C(=O)N3)NC(=O)[C@H](C(C)C)NC(=O)[C@H](CC(C)C)NC(=O)[C@H](CC(N)=O)NC(=O)[C@@H]1CCCN1C(=O)[C@H](CCCNC(=N)N)NC2=O [[Nva5]GpTx-1(1-34)],–,38,–,–
CC[C@H](C)[C@@H]1NC(=O)[C@@H]2CSSC[C@@H]3NC(=O)[C@H](C(C)C)NC(=O)[C@H](CC(C)C)NC(=O)[C@H](CC(N)=O)NC(=O)[C@@H]4CCCN4C(=O)[C@H](CCCNC(=N)N)NC(=O)[C@H](CSSC[C@H](NC(=O)[C@@H](N)CC(=O)O)C(=O)N[C@@H](CC(C)C)C(=O)NCC(=O)N[C@@H](C(C)(C)C)C(=O)N[C@@H](CCSC)C(=O)N[C@@H](CCCNC(=N)N)C(=O)N[C@@H](CCCCN)C(=O)N2)NC(=O)[C@H](CSSC[C@@H](C(=O)N[C@@H](CCCCN)C(=O)N[C@@H](Cc2ccc(O)cc2)C(=O)N[C@H](C(=O)N[C@@H](Cc2ccccc2)C(N)=O)C(C)C)NC(=O)[C@H](Cc2c[nH]c4ccccc24)NC(=O)[C@H](CCCCN)NC(=O)[C@H](Cc2cnc[nH]2)NC(=O)[C@H]([C@@H](C)O)NC(=O)[C@H](CCCNC(=N)N)NC(=O)[C@H](CO)NC3=O)NC(=O)[C@H](CCCCN)NC(=O)[C@H](CC(=O)O)NC(=O)[C@H](CC(N)=O)NC(=O)[C@H](CC(=O)O)NC(=O)[C@@H]2CCCN2C1=O [[Tle5]GpTx-1(1-34)],–,23,–,–

# From patent publication US9340590B2 (priority 2011, dated 2016)
